Legend:
CYP2C8 = biological target: T1, CYP2C8 (Homo sapiens, UniProt P10632); experiment: Repaglinide drug-drug interaction in humans; format: in vivo; conditions: repaglinide exposure after 14 day repeat doses
T1 construct: from tissue; host or cells: human volunteers in vivo (endogenous, mainly hepatic, enzyme: own knowledge)
T1 sequence (P10632 1-490): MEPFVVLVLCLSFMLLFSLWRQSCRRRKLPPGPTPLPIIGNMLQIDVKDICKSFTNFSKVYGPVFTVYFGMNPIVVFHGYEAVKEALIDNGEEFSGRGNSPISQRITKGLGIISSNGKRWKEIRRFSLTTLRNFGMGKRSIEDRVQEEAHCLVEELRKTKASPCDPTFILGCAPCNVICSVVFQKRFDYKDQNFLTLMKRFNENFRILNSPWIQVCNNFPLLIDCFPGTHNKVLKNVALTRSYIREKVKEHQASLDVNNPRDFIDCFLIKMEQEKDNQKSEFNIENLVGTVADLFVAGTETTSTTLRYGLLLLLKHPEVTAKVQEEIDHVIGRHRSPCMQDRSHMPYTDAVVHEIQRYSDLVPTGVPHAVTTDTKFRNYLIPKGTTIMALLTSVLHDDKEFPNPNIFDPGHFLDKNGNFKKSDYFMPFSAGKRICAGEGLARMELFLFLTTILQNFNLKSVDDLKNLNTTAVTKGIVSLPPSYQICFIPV

[1] = test system: cardiovascular or respiratory function; experiment: In vivo safety pharmacology studies
Procedure: The no-observed-adverse-effect-level doses were 7.5/mg/kg/day and 6 mg/kg/day in rats and dogs, respectively.

rats = experiment: Sleep states by electroencephalogram (EEG) in rats; format: in vivo, rat
Procedure: The effect of CV-10155 on various sleep states was analyzed in rats. Rats were given various doses of CV-10155, and sleep states were analyzed by electroencephalogram (EEG).

rodent models = experiment: Tolerability in rodent models; format: in vivo; conditions: at efficacious doses
From the text: The compound of Formula (I) is also believed to show antiepileptic activity in maximal electroshock and pentylenetetrazol seizure models, antidepressant properties in the forced swim test, and anxiolytic properties in the elevated plus maze test.

kappa opioid receptor = kappa opioid receptor (Homo sapiens, UniProt P41145); experiment: Activity at the kappa opioid receptor; conditions: previously shown
From the text: The compound of Formula (I) is believed to have binding affinity at the GABA-gated Cl-channel, the kappa opioid receptor, the 5-HT2A receptor, and the androgen receptor. The compound of Formula (I) has previously shown activity at all 18 GABAA receptor channels and the kappa opioid receptor. The compound of Formula (I) had previously shown no activity at the 5-HT2A receptor. Activity at the androgen receptor is has not yet been well studied.

[2] = Pharmacokinetic parameters in preclinical rodent studies; format: in vivo; set-up: Oral BA / ½ life: unit not given here
Procedure: The pharmacokinetic parameters of CV-10155 in preclinical studies on rodent models of seizure, anxiety, depression and EEG biomarker were analyzed.

[3] = Human equivalent dose and allometric scaling of anticipated human exposure; conditions: 60 kg participant
Procedure: Justification for Dose—Based on the nonclinical toxicology data, there is not an unreasonable risk of adverse effects. Using the FDA guidance “Estimating the Maximum Safe Starting Dose in Initial Clinical Trials for Therapeutics in Adult Healthy Volunteers” (July, 2005), the calculated human equivalent dose would be 1/2 mg/kg/day or 3/24 mg/kg/day, respectively, based on the 28-day rat no-observed-adverse-effect-level dose of 7.5 mg/kg/day or the 28-day dog no-observed-adverse-effect-level dose of 6 mg/kg/day, respectively. For both species the no-observed-adverse-effect-level dose was the highest dose tested. For a 60 kg participant, this would result in a maximum safe starting dose of (human equivalent dose/10) of 7.2 mg/day or 19/6 mg/day. The starting doses in this Phase 1 study are 5 mg, equivalent to […] for a 60 kg participant. […] These anticipated Cmax and AUC values are ˜80- and 50-fold lower, respectively, than that observed at the no-observed-adverse-effect-level dose in dogs.

[4] = Further pharmacokinetic analysis of Phase 1 human dosing exposure studies; format: in vivo
[5] = 1 mg/kg (minimal effective dose), male and female subjects
[6] = 3 mg/kg, male and female subjects
[7] = 10 mg/kg, male and female subjects

Chain of kappa opioid receptor (P41145 whole entry): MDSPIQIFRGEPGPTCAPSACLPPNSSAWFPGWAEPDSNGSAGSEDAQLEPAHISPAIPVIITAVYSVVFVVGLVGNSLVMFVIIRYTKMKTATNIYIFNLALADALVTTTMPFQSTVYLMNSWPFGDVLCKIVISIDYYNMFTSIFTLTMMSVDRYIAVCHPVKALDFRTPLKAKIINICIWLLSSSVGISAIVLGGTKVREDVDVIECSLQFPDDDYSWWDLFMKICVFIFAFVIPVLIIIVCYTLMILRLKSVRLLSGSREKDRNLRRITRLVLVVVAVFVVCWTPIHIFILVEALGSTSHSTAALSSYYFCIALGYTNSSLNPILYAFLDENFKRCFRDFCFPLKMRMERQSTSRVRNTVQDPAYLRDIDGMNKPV

For `C[C@@]1(O)CC[C@@]2(C)[C@@H](CC[C@@H]3[C@@H]2CC[C@]2(C)[C@@H](C(=O)Cn4cc(C#N)cn4)CC[C@@H]32)C1` [CV-10155, 1-[2-[(3R,5S,8R,9S,10S,13S,14S,17S)-3-hydroxy-3,10,13-trimethyl-1,2,4,5,6,7,8,9,11,12,14,15,16,17-tetradecahydrocyclopenta[a]phenanthren-17-yl]-2-oxoethyl]pyrazole-4-carbonitrile], the “DDI inhibitory effect at CYP2C8 level” value (CYP2C8) was “no or minimal DDI inhibitory effect”, the “effect on cardiovascular or respiratory function” value [1] was “does not affect” and the “dose producing an increase in non-REM sleep” value (rats; doses 1, 3, 6, 10 mg/kg) was ≥ 3 mg/kg. For the same compound, the target engagement (rats; within well-tolerated and efficacious dose ranges) was “dose-dependent target engagement”, the “tolerability in rodent models” value (rodent models) was “well tolerated” and the “activity at the kappa opioid receptor” value (kappa opioid receptor) was “activity”. For the same compound, the AUC0-inf [2, 5] was 508-1301, the Cmax [2, 5] was 84.4-128 and the “Oral BA” value [2, 5] was 58.6-92.4. The Tmax [2, 5] was 1.5-2^, the ½ life [2, 5] was 3.66-6.82 and the “Oral BA” value ([2]; 2 mg/kg, only male subjects) was 47.2. The Tmax ([2]; 2 mg/kg, only male subjects, in h) was 1.7, the Cmax ([2]; 2 mg/kg, only male subjects, in ng/mL) was 224 and the AUC0-inf ([2]; 2 mg/kg, only male subjects, in ng·h/mL) was 1319. The AUC0-inf [2, 6] was 1378-3899, the Cmax [2, 6] was 270-440 and the “Oral BA” value [2, 6] was 53-92.3. The ½ life [2, 6] was 2.84-4.96, the Tmax ([2]; 3 mg/kg, male and female subjects, in h) was 1.25-2.50 and the “Oral BA” value ([2]; 5 mg/kg, only male subjects) was 58.1. For the same compound, the ½ life ([2]; 5 mg/kg, only male subjects) was 4.19, the Tmax ([2]; 5 mg/kg, only male subjects, in h) was 0.83 and the Cmax ([2]; 5 mg/kg, only male subjects, in ng/mL) was 499. For the same compound, the AUC0-inf ([2]; 5 mg/kg, only male subjects, in ng·h/mL) was 2610, the AUC0-inf [2, 7] was 6848-14667 and the “Oral BA” value [2, 7] was 79.7-100. For the same compound, the ½ life [2, 7] was 3.23-4.80, the Tmax ([2]; 10 mg/kg, male and female subjects, in h) was 1.25-2.25 and the Cmax ([2]; 10 mg/kg, male and female subjects, in ng/mL) was 1165. The “maximum safe starting dose (human equivalent dose/10)” value ([3]; from dog NOAEL) was 19/6, the “maximum safe starting dose (human equivalent dose/10)” value ([3]; from rat NOAEL) was 7.2 mg/day and the elimination in urine [4] was < 1 % of the dose. For the same compound, the “accumulation ratio based on AUC” value ([4]; once daily administration) was “approximately 2”, the “daily dose by which steady state was achieved” value ([4]; once daily administration, visual inspection of mean concentrations) was “eighth” and the Tmax ([4]; plasma, Phase 1, after oral administration) was 3 to 4 h. The half-life ([4]; plasma, oral, Phase 1, both after single and repeat administration, read-out: terminal half-life (converted)) was ~2400 min.

Reference: patent US20230372364A1, “METHOD OF TREATING GABA MEDIATED DISORDERS” (Eliem Therapeutics (UK) Ltd, priority 2020, published 2023)
